Reference: ChEMBL document CHEMBL3046430, “Synthesis of some new 3,5-diamino-4-(4-fluorophenylazo)-1-aryl/heteroarylpyrazoles as antimicrobial agents” (2013)
Converted amounts (≈) assume the structure as drawn. The source made the active and inactive calls. The rule behind the calls is not given here.

Tests used:
Type in all cases: functional
Saccharomyces cerevisiae [1] = assay: Antifungal activity against Saccharomyces cerevisiae after 7 days by agar well diffusion method
Klebsiella aerogenes [2] = assay: Antibacterial activity against Enterobacter aerogenes after 24 hr by agar well diffusion method
Aspergillus niger [3] = assay: Antifungal activity against Aspergillus niger at 2 to 64 ug/ml after 7 days by agar well diffusion method
Candida albicans [4] = assay: Antifungal activity against Candida albicans at 2 to 64 ug/ml after 7 days by agar well diffusion method
Staphylococcus aureus [5] = assay: Antibacterial activity against Staphylococcus aureus at 2 to 64 ug/ml after 24 hr by agar well diffusion method
Aspergillus niger [6] = assay: Antifungal activity against Aspergillus niger after 7 days by agar well diffusion method
Bacillus subtilis [7] = assay: Antibacterial activity against Bacillus subtilis after 24 hr by agar well diffusion method
Candida albicans [8] = assay: Antifungal activity against Candida albicans after 7 days by agar well diffusion method
Escherichia coli [9] = assay: Antibacterial activity against Escherichia coli after 24 hr by agar well diffusion method
Escherichia coli [10] = assay: Antibacterial activity against Escherichia coli at 2 to 64 ug/ml after 24 hr by agar well diffusion method
Klebsiella aerogenes [11] = assay: Antibacterial activity against Enterobacter aerogenes at 2 to 64 ug/ml after 24 hr by agar well diffusion method
Saccharomyces cerevisiae [12] = assay: Antifungal activity against Saccharomyces cerevisiae at 2 to 64 ug/ml after 7 days by agar well diffusion method
Staphylococcus aureus [13] = assay: Antibacterial activity against Staphylococcus aureus after 24 hr by agar well diffusion method
Bacillus subtilis [14] = assay: Antibacterial activity against Bacillus subtilis at 2 to 64 ug/ml after 24 hr by agar well diffusion method

SMILES	MIC (Saccharomyces cerevisiae [1])	MIC (Klebsiella aerogenes [2])	Activity (Aspergillus niger [3])	diameter of the inhibition zone (DIZ) (Candida albicans [4]) [mm]	Activity (Staphylococcus aureus [5])	MIC (Aspergillus niger [6])	MIC (Bacillus subtilis [7])	MIC (Candida albicans [8]; 168 h) [mg/L]	MIC (Escherichia coli [9])	Activity (Escherichia coli [10])	diameter of the inhibition zone (DIZ) (Klebsiella aerogenes [11]) [mm]	Activity (Saccharomyces cerevisiae [12])	MIC (Staphylococcus aureus [13])	Activity (Bacillus subtilis [14])	diameter of the inhibition zone (DIZ) (Bacillus subtilis [14]) [mm]	diameter of the inhibition zone (DIZ) (Escherichia coli [10]) [mm]	MIC (Saccharomyces cerevisiae [1]; 168 h) [mg/L]	diameter of the inhibition zone (DIZ) (Saccharomyces cerevisiae [12]) [mm]	further results
Nc1nn(-c2ccc(Cl)cc2)c(N)c1/N=N/c1ccc(F)cc1	inactive	2 mg/L (≈ 6.05 µM)	inactive	9	inactive	inactive	inactive	2 (≈ 6.05 µM)	inactive	inactive	12	inactive	inactive	inactive	–	–	–	–	–
Cc1ccc2nc(-n3nc(N)c(/N=N/c4ccc(F)cc4)c3N)sc2c1	inactive	2 mg/L (≈ 5.44 µM)	inactive	11	inactive	inactive	inactive	2 (≈ 5.44 µM)	inactive	inactive	10.5	inactive	inactive	inactive	–	–	–	–	–
Nc1nn(-c2nc3ccc(F)cc3s2)c(N)c1/N=N/c1ccc(F)cc1	inactive	4 mg/L (≈ 10.8 µM)	–	–	inactive	–	4 mg/L (≈ 10.8 µM)	–	inactive	inactive	11	inactive	inactive	–	12	–	–	–	diameter of the inhibition zone (DIZ) (Aspergillus niger [3]): 14 mm; Activity (Candida albicans [4]): inactive; MIC (Aspergillus niger [6]; 168 h): 2 mg/L (≈ 5.39 µM); MIC (Candida albicans [8]): inactive
Cc1cc(-n2nc(N)c(/N=N/c3ccc(F)cc3)c2N)nc2ccccc12	inactive	8 mg/L (≈ 22.1 µM)	inactive	10	–	inactive	4 mg/L (≈ 11.1 µM)	64 (≈ 177 µM)	2 mg/L (≈ 5.53 µM)	–	15	inactive	2 mg/L (≈ 5.53 µM)	–	12	15	–	–	diameter of the inhibition zone (DIZ) (Staphylococcus aureus [5]): 2.6 mm
C=CC1=C(C(=O)O)N2C(=O)[C@@H](NC(=O)/C(=N\OCC(=O)O)c3csc(N)n3)[C@H]2SC1 [CEFIXIME]	inactive	2 mg/L (≈ 4.41 µM)	inactive	–	–	inactive	4 mg/L (≈ 8.82 µM)	–	2 mg/L (≈ 4.41 µM)	–	15	inactive	2 mg/L (≈ 4.41 µM)	–	2.8	14	–	–	Activity (Candida albicans [4]): inactive; diameter of the inhibition zone (DIZ) (Staphylococcus aureus [5]): 2.9 mm; MIC (Candida albicans [8]): inactive
Nc1nn(-c2nc3ccccc3s2)c(N)c1/N=N/c1ccc(F)cc1	–	2 mg/L (≈ 5.66 µM)	inactive	12	inactive	inactive	6 mg/L (≈ 17 µM)	2 (≈ 5.66 µM)	8 mg/L (≈ 22.6 µM)	–	14	–	inactive	–	9	12	6 (≈ 17 µM)	9	–
Nc1nn(-c2nc3ccc(Cl)cc3s2)c(N)c1/N=N/c1ccc(F)cc1	inactive	2 mg/L (≈ 5.16 µM)	inactive	12	inactive	inactive	inactive	2 (≈ 5.16 µM)	inactive	inactive	10	inactive	inactive	inactive	–	–	–	–	–
OC(Cn1cncn1)(Cn1cncn1)c1ccc(F)cc1F [FLUCONAZOLE]	–	inactive	–	10	inactive	–	inactive	2 (≈ 6.53 µM)	inactive	inactive	–	–	inactive	inactive	–	–	4 (≈ 13.1 µM)	12	diameter of the inhibition zone (DIZ) (Aspergillus niger [3]): 13 mm; MIC (Aspergillus niger [6]; 168 h): 2 mg/L (≈ 6.53 µM); Activity (Klebsiella aerogenes [11]): inactive
Nc1nn(-c2ccc([N+](=O)[O-])cc2[N+](=O)[O-])c(N)c1/N=N/c1ccc(F)cc1	–	2 mg/L (≈ 5.18 µM)	–	11	inactive	–	4 mg/L (≈ 10.4 µM)	2 (≈ 5.18 µM)	2 mg/L (≈ 5.18 µM)	–	13	–	inactive	–	10	13	8 (≈ 20.7 µM)	12	diameter of the inhibition zone (DIZ) (Aspergillus niger [3]): 10 mm; MIC (Aspergillus niger [6]; 168 h): 2 mg/L (≈ 5.18 µM)
Nc1nn(-c2ccccc2)c(N)c1/N=N/c1ccc(F)cc1	–	32 mg/L (≈ 108 µM)	inactive	7	inactive	inactive	8 mg/L (≈ 27 µM)	2 (≈ 6.75 µM)	2 mg/L (≈ 6.75 µM)	–	12	–	inactive	–	10	12	4 (≈ 13.5 µM)	12	–
Cc1cc(C)nc(-n2nc(N)c(/N=N/c3ccc(F)cc3)c2N)n1	–	8 mg/L (≈ 24.5 µM)	inactive	9	–	inactive	inactive	2 (≈ 6.13 µM)	inactive	inactive	9	–	16 mg/L (≈ 49 µM)	inactive	–	–	8 (≈ 24.5 µM)	10	diameter of the inhibition zone (DIZ) (Staphylococcus aureus [5]): 4.5 mm
